Where a name gives a salt, the structure may show the parent alone. Bounds are passed on as bounds.

Sequence of human GlyT1c transporter (P48067 whole entry): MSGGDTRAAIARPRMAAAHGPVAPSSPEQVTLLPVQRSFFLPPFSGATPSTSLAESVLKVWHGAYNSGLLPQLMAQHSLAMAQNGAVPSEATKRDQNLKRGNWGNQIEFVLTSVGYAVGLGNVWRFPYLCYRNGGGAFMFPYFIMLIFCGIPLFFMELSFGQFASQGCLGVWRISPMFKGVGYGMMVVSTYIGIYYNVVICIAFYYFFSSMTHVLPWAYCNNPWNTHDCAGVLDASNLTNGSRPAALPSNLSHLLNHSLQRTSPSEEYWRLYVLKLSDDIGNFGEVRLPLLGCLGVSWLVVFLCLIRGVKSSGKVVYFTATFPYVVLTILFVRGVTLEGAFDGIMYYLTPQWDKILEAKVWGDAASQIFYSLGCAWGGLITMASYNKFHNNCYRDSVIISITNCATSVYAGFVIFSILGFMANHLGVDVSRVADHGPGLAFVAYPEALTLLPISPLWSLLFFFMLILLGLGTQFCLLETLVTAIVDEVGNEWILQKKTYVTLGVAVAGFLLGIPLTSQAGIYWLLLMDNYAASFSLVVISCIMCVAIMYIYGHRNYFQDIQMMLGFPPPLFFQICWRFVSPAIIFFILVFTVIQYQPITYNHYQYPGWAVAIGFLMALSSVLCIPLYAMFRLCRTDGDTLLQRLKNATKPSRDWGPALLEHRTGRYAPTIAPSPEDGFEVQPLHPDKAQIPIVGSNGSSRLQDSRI

One assay concerns the target human GlyT1c transporter (Homo sapiens (Human), UniProt P48067). The experiment in a line: Radioligand binding assay using recombinant CHO cell membranes expressing human GlyT1. The conditions noted are these: examples 88-204, radioligand not specified by footnote, hydrochloride, read-out: radioligand binding Kiapp. The protocol:
2. Radioligand binding assays using recombinant CHO cell membranes expressing human GlyT1:
Radioligand binding to human GlyT1c transporter-expressing membranes was carried out as described in Mezler et al., Molecular Pharmacology 74:1705-1715, 2008.
More specifically, [^3H]-(R)-NPTS radioligand binding to human GlyT1c transporter-expressing membranes was measured in duplicate in a total volume of 200 μl in 96-well plates. To 100 μl of membrane suspension (yielding a final membrane protein concentration of 50 μg/ml) in assay buffer (120 mM NaCl, 2 mM KCl, 10 mM Hepes, 1 mM MgCl2, 1 mM CaCl2, pH 7.5) […] of [^3H]-(R)-NPTS (0.5 nM final) were added in assay buffer. For competition experiments 10 μl of buffer or unlabeled compound solution obtained from dilution series of test compounds in DMSO followed. An intermediate 1:10 dilution in assay buffer yielded a final DMSO concentration of 1%. Non-specific binding was determined in the presence of 10 μM Org24598 (or its racemate Org24461) for [^3H]-(R)-NPTS. After incubation at room temperature for 1 h, the incubation mixture was harvested (Tomtec Mach III U Harvester) through 96-well GF/B filter plates (PerkinElmer), presoaked for 1 h with 40 μl per well of 0.1% polyethylene-imine (PEI). After washing twice with ice-cold 50 mM Tris-HCl pH 7.4 buffer, drying and addition of 35 μl scintillator (BetaplateScint, PerkinElmer) per well followed. The radioactivity was determined by liquid scintillation spectrometry in a MicroBeta (PerkinElmer) plate counter.
Data analysis: For binding of [^3H]-(R)-NPTS to cell membranes, the calculation of Kd and Bmax values from the saturation binding assays and the IC50 values from the displacement binding was performed by iterative non-linear regression analysis adapted from the ‘Ligand’ program (Munson and Rodbard, 1980). Radioligand displacement curves in absence or in presence of increasing concentrations of tested compounds were fitted using a one-site fit and the apparent Ki values were calculated from the IC50 values using the Cheng-Prusoff equation (Cheng and Prusoff 1973).
As for `O=S(=O)(NCCOc1ccc2c(c1)[C@H](C1(c3ccc(Cl)cc3)CCC1)NCC2)c1cccnc1` [Example 141, N-[2-({(1S)-1-[1-(4-Chlorophenyl)cyclobutyl]-1,2,3,4-tetrahydroisoquinolin-7-yl}oxy)ethyl]pyridine-3-sulfonamide hydrochloride], the Ki is no more than 0.1 µM.

The assay is the same for the next values; noted with them: examples 88-204, radioligand not specified by footnote, read-out: radioligand binding Kiapp.
In the case of `CN(C)S(=O)(=O)NCCOc1ccc2c(c1)C(C1(c3ccc(Cl)cc3)CCC1)NCC2` (stereo not drawn) [Example 143, N′-[2-({1-[1-(4-Chlorophenyl)cyclobutyl]-1,2,3,4-tetrahydroisoquinolin-7-yl}oxy)ethyl]-N,N-dimethylsulfuric diamide hydrochloride], the Ki is no more than 0.1 µM.

For `O=S(=O)(CCC(F)(F)F)NCCOc1ccc2c(c1)C(C1(c3ccc(Cl)cc3)CCC1)NCC2` (stereo not drawn) [Example 144, N-[2-({1-[1-(4-Chlorophenyl)cyclobutyl]-1,2,3,4-tetrahydroisoquinolin-7-yl}oxy)ethyl]-3,3,3-trifluoropropane-1-sulfonamide hydrochloride], the Ki was no more than 0.1 µM.

Turning to `NCCS(=O)(=O)NCCOc1ccc2c(c1)[C@H](C1(c3ccc(Cl)cc3)CCC1)NCC2` [Example 146, 2-Amino-N-[2-({(1S)-1-[1-(4-chlorophenyl)cyclobutyl]-1,2,3,4-tetrahydroisoquinolin-7-yl}oxy)ethyl]ethanesulfonamide dihydrochloride], the Ki was no more than 0.1 µM. For `Nc1ccc(S(=O)(=O)NCCOc2ccc3c(c2)C(C2(c4ccc(Cl)cc4)CCC2)NCC3)cc1` (stereo not drawn) [Example 147, 4-Amino-N-[2-({1-[1-(4-chlorophenyl)cyclobutyl]-1,2,3,4-tetrahydroisoquinolin-7-yl}oxy)ethyl]benzenesulfonamide dihydrochloride], the Ki is no more than 0.1 µM. Same read-out and setting: to `CN(C)CCS(=O)(=O)NCCOc1ccc2c(c1)C(C1(c3ccc(Cl)cc3)CCC1)NCC2` (stereo not drawn) [Example 149, N-[2-({1-[1-(4-Chlorophenyl)cyclobutyl]-1,2,3,4-tetrahydroisoquinolin-7-yl}oxy)ethyl]-2-(dimethylamino)ethanesulfonamide (2E)-but-2-enedioate] belongs no more than 0.1 µM. As to `Nc1ncc(S(=O)(=O)NCCOc2ccc3c(c2)C(C2(c4ccc(Cl)cc4)CCC2)NCC3)cn1` (stereo not drawn) [Example 150, 2-Amino-N-[2-({1-[1-(4-chlorophenyl)cyclobutyl]-1,2,3,4-tetrahydroisoquinolin-7-yl}oxy)ethyl]pyrimidine-5-sulfonamide], the Ki is no more than 0.1 µM. The same measure, in the same setting: to `O=S(=O)(NCCOc1ccc2c(c1)C(C1(c3ccc(Cl)cc3)CCC1)NCC2)c1cn[nH]c1` (stereo not drawn) [Example 153, N-[2-({1-[1-(4-Chlorophenyl)cyclobutyl]-1,2,3,4-tetrahydroisoquinolin-7-yl}oxy)ethyl]-1H-pyrazole-4-sulfonamide hydrochloride] belongs no more than 0.1 µM; to `COc1ccc(S(=O)(=O)NCCOc2ccc3c(c2)C(C2(c4ccc(Cl)cc4)CCC2)NCC3)cn1` (stereo not drawn) [Example 156, N-[2-({1-[1-(4-Chlorophenyl)cyclobutyl]-1,2,3,4-tetrahydroisoquinolin-7-yl}oxy)ethyl]-6-methoxypyridine-3-sulfonamide hydrochloride], no more than 0.1 µM. For the molecule `Nc1cccc(S(=O)(=O)NCCOc2ccc3c(c2)C(C2(c4ccc(Cl)cc4)CCC2)NCC3)c1` (stereo not drawn) [Example 157, 3-Amino-N-[2-({1-[1-(4-chlorophenyl)cyclobutyl]-1,2,3,4-tetrahydroisoquinolin-7-yl}oxy)ethyl]benzenesulfonamide dihydrochloride], the Ki was no more than 0.1 µM. As for `O=S(=O)(NCCOc1ccc2c(c1)C(C1(c3ccc(Cl)cc3)CCC1)NCC2)C1CCNC1` (stereo not drawn) [Example 159, N-[2-({1-[1-(4-Chlorophenyl)cyclobutyl]-1,2,3,4-tetrahydroisoquinolin-7-yl}oxy)ethyl]pyrrolidine-3-sulfonamide dihydrochloride], the Ki was no more than 0.1 µM. The same measure, in the same setting: to `O=S(=O)(CCN1CCCCC1)NCCOc1ccc2c(c1)C(C1(c3ccc(Cl)cc3)CCC1)NCC2` (stereo not drawn) [Example 161, N-[2-({1-[1-(4-Chlorophenyl)cyclobutyl]-1,2,3,4-tetrahydroisoquinolin-7-yl}oxy)ethyl]-2-(piperidin-1-yl)ethanesulfonamide (2E)-but-2-enedioate] belongs no more than 1 µM. With `CNc1nnc(S(=O)(=O)NCCOc2ccc3c(c2)C(C2(c4ccc(Cl)cc4)CCC2)NCC3)s1` (stereo not drawn) [Example 162, N-[2-({1-[1-(4-Chlorophenyl)cyclobutyl]-1,2,3,4-tetrahydroisoquinolin-7-yl}oxy)ethyl]-5-(methylamino)-1,3,4-thiadiazole-2-sulfonamide hydrochloride], the Ki is no more than 1 µM. Take `Nc1ncc(S(=O)(=O)NCCOc2ccc3c(c2)C(C2(c4ccc(Cl)cc4)CCC2)NCC3)s1` (stereo not drawn) [Example 163, 2-Amino-N-[2-({1-[1-(4-chlorophenyl)cyclobutyl]-1,2,3,4-tetrahydroisoquinolin-7-yl}oxy)ethyl]-1,3-thiazole-5-sulfonamide dihydrochloride]: the Ki is no more than 1 µM. With `O=S(=O)(NCCOc1ccc2c(c1)C(C1(c3ccc(Cl)cc3)CCC1)NCC2)C1CNC1` (stereo not drawn) [Example 166, N-[2-({1-[1-(4-Chlorophenyl)cyclobutyl]-1,2,3,4-tetrahydroisoquinolin-7-yl}oxy)ethyl]azetidine-3-sulfonamide (2E)-but-2-enedioate], the Ki is no more than 1 µM.

On to `CC(C)NCCS(=O)(=O)NCCOc1ccc2c(c1)C(C1(c3ccc(Cl)cc3)CCC1)NCC2` (stereo not drawn) [Example 169, N-[2-({1-[1-(4-Chlorophenyl)cyclobutyl]-1,2,3,4-tetrahydroisoquinolin-7-yl}oxy)ethyl]-2-(propan-2-ylamino)ethanesulfonamide], for which the Ki is no more than 1 µM. Same read-out and setting: to `O=C(OCc1ccccc1)N1CCC(S(=O)(=O)NCCOc2ccc3c(c2)C(C2(c4ccc(Cl)cc4)CCC2)NCC3)C1` (stereo not drawn) [Example 170, Benzyl 3-{[2-({1-[1-(4-chlorophenyl)cyclobutyl]-1,2,3,4-tetrahydroisoquinolin-7-yl}oxy)ethyl]sulfamoyl}pyrrolidine-1-carboxylate] belongs no more than 1 µM. Consider `CCCS(=O)(=O)NCCOc1ccc2c(c1)C(C1(c3ccc(Cl)cc3)CCC1)N(C(C)=O)CC2` (stereo not drawn) [Example 171, N-[2-({2-Acetyl-1-[1-(4-chlorophenyl)cyclobutyl]-1,2,3,4-tetrahydroisoquinolin-7-yl}oxy)ethyl]propane-1-sulfonamide], for which the Ki is no more than 10 µM.

Turning to `O=S(=O)(NCCOc1ccc2c(c1)C(C1(c3ccc(Cl)cc3)CCC1)NCC2)c1ccc(Oc2ccccc2)nc1` (stereo not drawn) [Example 173, N-[2-({1-[1-(4-Chlorophenyl)cyclobutyl]-1,2,3,4-tetrahydroisoquinolin-7-yl}oxy)ethyl]-6-phenoxypyridine-3-sulfonamide hydrochloride], the Ki was no more than 10 µM.

For `CCCS(=O)(=O)N(CCN)CCOc1ccc2c(c1)C(C1(c3ccc(Cl)cc3)CCC1)NCC2` (stereo not drawn) [Example 174, N-(2-Aminoethyl)-N-[2-({1-[1-(4-chlorophenyl)cyclobutyl]-1,2,3,4-tetrahydroisoquinolin-7-yl}oxy)ethyl]propane-1-sulfonamide dihydrochloride], the Ki is no more than 10 µM. Take `O=S(=O)(NCCOc1ccc2c(c1)C(C1(c3ccc(Cl)cc3)CCC1)NCC2)C1CCN(Cc2ccccc2)CC1` (stereo not drawn) [Example 177, 1-Benzyl-N-[2-({1-[1-(4-chlorophenyl)cyclobutyl]-1,2,3,4-tetrahydroisoquinolin-7-yl}oxy)ethyl]piperidine-4-sulfonamide hydrochloride]: the Ki is no more than 10 µM. Still for that read-out and setting: to `CNCCCS(=O)(=O)NCCOc1ccc2c(c1)C(C1(c3ccc(Cl)cc3)CCC1)NCC2` (stereo not drawn) [Example 178, N-[2-({1-[1-(4-Chlorophenyl)cyclobutyl]-1,2,3,4-tetrahydroisoquinolin-7-yl}oxy)ethyl]-3-(methylamino)propane-1-sulfonamide (2E)-but-2-enedioate] belongs no more than 10 µM; to `CC(=O)N1CC(S(=O)(=O)NCCOc2ccc3c(c2)C(C2(c4ccc(Cl)cc4)CCC2)NCC3)C1` (stereo not drawn) [Example 180, 1-Acetyl-N-[2-({1-[1-(4-chlorophenyl)cyclobutyl]-1,2,3,4-tetrahydroisoquinolin-7-yl}oxy)ethyl]azetidine-3-sulfonamide di[(2E)-but-2-enedioate]], no more than 10 µM; to `NCCCCS(=O)(=O)NCCOc1ccc2c(c1)C(C1(c3ccc(Cl)cc3)CCC1)NCC2` (stereo not drawn) [Example 184, 4-Amino-N-[2-({1-[1-(4-chlorophenyl)cyclobutyl]-1,2,3,4-tetrahydroisoquinolin-7-yl}oxy)ethyl]butane-1-sulfonamide (2E)-but-2-enedioate], no more than 10 µM.

Values taken from patent US8653100B2 (AbbVie Inc., priority 2008, dated 2014).
